This passage reports IC50 results from ChEMBL document CHEMBL4196203, “BACE1 Inhibitory Meroterpenoids from Aspergillus terreus” (J Nat Prod, 2018).

The assay addresses Beta-secretase 1 (Homo sapiens, UniProt P56817). The assay can be described thus: Inhibition of human BACE1 using MOCA-SEV-NL-DAEFR-DNP-RR as substrate measured after 2 hrs by FRET assay.

Sequence of Beta-secretase 1 (P56817 whole entry): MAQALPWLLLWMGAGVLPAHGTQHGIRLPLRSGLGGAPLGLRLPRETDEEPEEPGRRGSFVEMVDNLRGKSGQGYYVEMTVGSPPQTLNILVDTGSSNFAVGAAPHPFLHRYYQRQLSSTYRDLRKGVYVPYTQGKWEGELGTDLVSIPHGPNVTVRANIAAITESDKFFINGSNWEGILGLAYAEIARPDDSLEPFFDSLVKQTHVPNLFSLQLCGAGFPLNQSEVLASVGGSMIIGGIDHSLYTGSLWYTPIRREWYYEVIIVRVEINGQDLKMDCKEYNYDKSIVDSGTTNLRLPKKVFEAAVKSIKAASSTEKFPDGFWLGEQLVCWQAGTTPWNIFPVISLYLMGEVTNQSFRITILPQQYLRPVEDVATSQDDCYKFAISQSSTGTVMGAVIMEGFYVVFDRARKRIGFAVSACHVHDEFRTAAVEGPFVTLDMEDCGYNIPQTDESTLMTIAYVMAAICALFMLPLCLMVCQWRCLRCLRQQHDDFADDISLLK

By IC50 is commonly meant the concentration that gives 50% inhibition. Read a low IC50 as higher potency. As to `C=C1C[C@H]2[C@]3(C)CCC(=O)C(C)(C)[C@H]3C(=O)[C@@H](O)[C@]2(C)[C@H]2C(=O)O[C@](C)(C(=O)OCC)C(=O)[C@]12C`, the half-inhibitory concentration (IC50) was more than 50 µM.

Molecule `C=C1C[C@H]2[C@]3(C)CCC(=O)C(C)(C)[C@H]3C(=O)[C@@H](O)[C@]2(C)[C@H]2C(=O)O[C@](C)(C(=O)OC)C(=O)[C@]12C` returned an IC50 of more than 50 µM. The same measure for `C=C1C[C@H]2[C@]3(C)CCC(=O)C(C)(C)[C@H]3C(=O)C[C@]2(C)[C@@H](C(=O)OC)[C@]1(C)C(=O)[C@](C)(O)C(=O)OC`: more than 50 µM. Turning to `C=C1C[C@H]2[C@]3(C)CCC(=O)C(C)(C)[C@H]3CC[C@]2(C)[C@]2(C(=O)OC)C(=O)[C@@](C)(O)C(=O)[C@]12C`, the IC50 was more than 50 µM. The molecule `C=C1C[C@H]2[C@]3(C)CCC(=O)C(C)(C)[C@@H]3C(=O)[C@@H](O)[C@]2(C)[C@@H](C(=O)OC)[C@]1(C)C(=O)[C@](C)(O)C(=O)OC` gave an IC50 of 31.7 µM. In turn, `C=C1C[C@@]2(O)[C@]3(C)CCC(=O)C(C)(C)C3=C(O)C(=O)[C@]2(C)[C@H]2C(=O)O[C@](C)(C(=O)OC)C(=O)[C@]12C` yielded an IC50 of more than 50 µM. Turning to `C=C1C[C@H]2[C@]3(C)CCC(=O)C(C)(C)[C@H]3C(=O)C[C@]2(C)[C@]2(C(=O)OC)C(=O)[C@H](C)OC(=O)[C@]12C`, the IC50 is more than 50 µM. Molecule `C=C1C[C@H]2[C@]3(C)CCC(=O)C(C)(C)[C@@H]3C(=O)[C@@H](O)[C@]2(C)[C@H]2C(=O)O[C@](C)(C(=O)OC)C(=O)[C@]12C` came in with a half-maximal inhibitory concentration (IC50) of 3.32 µM. The same measure for `C=C1[C@@H]2O[C@@]23[C@]2(C)CCC(=O)C(C)(C)C2=C(O)C(=O)[C@]3(C)[C@H]2C(=O)O[C@](C)(C(=O)OC)C(=O)[C@]12C`: more than 50 µM. The same measure for `C=C1C[C@H]2[C@]3(C)CCC(=O)C(C)(C)[C@H]3C(=O)[C@@H](O)[C@]2(C)[C@@H](C(=O)OC)[C@]1(C)C(=O)[C@](C)(O)C(=O)OC`: more than 50 µM; for `C=C1C[C@@H]2[C@](C)(C(=O)C(O)=C3C(C)(C)C(=O)CC[C@]32C)[C@H]2C(=O)O[C@](C)(C(=O)OC)C(=O)[C@]12C`: more than 50 µM. The molecule `C=C1C[C@H]2[C@]3(C)CCC(=O)C(C)(C)[C@H]3C(=O)[C@@H](O)[C@]2(C)[C@@H]2C(=O)O[C@](C)(C(=O)OC)C(=O)[C@]12C` displayed a 50% inhibitory concentration (IC50) of more than 50 µM.

For the molecule `C=C1C[C@H]2[C@]3(C)CCC(=O)C(C)(C)[C@@H]3C(=O)[C@@H](O)[C@]2(C)[C@H]2C(=O)O[C@@H](C)C(=O)[C@]12C`, the IC50 stood at 5.85 µM. The same measure for `C=C1C[C@@H]2[C@](C)(C(=O)C(O)=C3C(C)(C)C(=O)CC[C@]32C)[C@@H](C(=O)OC)[C@]1(C)C(=O)[C@](C)(O)C(=O)OC`: more than 50 µM. The same measure for `C=C1C[C@H]2[C@]3(C)CCC(=O)C(C)(C)[C@H]3C(=O)[C@@H](O)[C@]2(C)[C@H]2C(=O)O[C@@H](C)C(=O)[C@]12C`: more than 50 µM.

In the case of `C=C1C[C@H]2[C@]3(C)CC[C@@H](O)C(C)(C)[C@H]3C(=O)[C@@H](O)[C@]2(C)[C@@H](C(=O)OC)[C@]1(C)C(=O)[C@](C)(O)C(=O)OC`, the IC50 is more than 50 µM.
